These results are taken from patent US4751026A, “Substituted anilides of oleic, linoleic, or linolenic acid as inhibitors of acyl-coa:cholesterol acyltransferase” (Warner-Lambert Company, priority 1987, dated 1988).

What is called IC50 is the concentration that inhibits the measured activity by half. Low readings indicate inhibition by little substance, high ones a need for much substance.

In one experiment the test system is Serum LDL Cholesterol. As to the kind of experiment: In vivo serum cholesterol lowering in cholesterol-fed rabbits. More on the design: species or system Male, New Zealand white rabbits. The settings on record: cholesterol-enriched diet, oral 50 mg/kg thirty minutes prior to each meal for seven days, three hours after last meal. An excerpt:
Male, New Zealand white rabbits weighing approximately 1 kg were fed a normal diet 40 g per day of rabbit chow (Purina No. 5321, Ralston Purina Co., 711 West Fuesser Road, Mascoutah, Ill., 62224, USA). After six days on this diet, the rabbits were fed 50 g per day for three days of a cholsterol-enriched diet consisting of one part of a cholesterol-containing chow (Purina Catalog No. 841206WLI, 0.25% cholesterol) and two parts of normal chow. Next, the rabbits were fed 60 g per day for four days of a cholsterol-enriched diet consisting of two parts of a cholesterol-containing chow (Purina Catalog No. 814206WLI, 0.25% cholesterol) and one part of normal chow.
After this meal adaptation and cholesterol loading period, the test compounds of this invention were administered to the test animals in oral doses of 50 mg/kg of body weight thirty minutes prior to each meal for seven days. Control animals were administered vehicle only.
The animals were sacrificed three hours after their last meal in the postabsorptive state. Serum cholesterol levels were determined for each animal, and the data appear in Table 2 expressed as percent change in serum cholesterol level compared to control.

In experiment [1] the target is T1, acyl-CoA:cholesterol acyltransferase (ACAT) (Oryctolagus cuniculus, UniProt G1SFD9).
T1 construct: in a tissue preparation containing rabbit intestinal microsomes; from tissue; host or cells: rabbit intestine, microsomes
T1 sequence (G1SFD9 1-524): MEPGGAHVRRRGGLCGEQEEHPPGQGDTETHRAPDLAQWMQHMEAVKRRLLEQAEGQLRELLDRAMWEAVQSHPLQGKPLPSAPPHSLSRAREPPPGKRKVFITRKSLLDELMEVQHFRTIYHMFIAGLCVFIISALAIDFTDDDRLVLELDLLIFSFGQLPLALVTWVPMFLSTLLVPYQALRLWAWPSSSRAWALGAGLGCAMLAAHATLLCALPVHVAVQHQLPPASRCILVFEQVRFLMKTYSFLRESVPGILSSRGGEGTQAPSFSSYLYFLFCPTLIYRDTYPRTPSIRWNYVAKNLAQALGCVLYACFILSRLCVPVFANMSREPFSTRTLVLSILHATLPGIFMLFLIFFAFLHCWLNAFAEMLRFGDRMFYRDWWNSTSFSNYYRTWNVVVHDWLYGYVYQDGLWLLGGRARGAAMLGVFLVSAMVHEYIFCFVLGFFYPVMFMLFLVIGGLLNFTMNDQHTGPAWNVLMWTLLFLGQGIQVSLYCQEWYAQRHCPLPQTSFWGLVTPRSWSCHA
As to the kind of experiment: In vitro inhibition of ACAT: radio-labeled cholesterol oleate formed from radio-labeled oleic acid in rabbit intestinal microsomes. It counts as biochemical. The settings on record: inhibition of acylation of cholesterol by oleic acid. As to the method: The ability of representative compounds of the present invention to inhibit ACAT was measured using an in vitro test more fully described in Field, F. J. and Salone, R. G., Biochemica et Biophysica 712: 557-570 (1982). The test assesses the ability of a test compound to inhibit the acylation of cholesterol by oleic acid by measuring the amount of radio-labeled cholesterol oleate formed from radio-labeled oleic acid in a tissue preparation containing rabbit intestinal microsomes.
The data appear in Table 1 where they are expressed as IC50 values; i.e. the concentration of test compound required to inhibit 50% […] of the enzyme.

In the case of `CCCCCCCC/C=C\CCCCCCCC(=O)Nc1c(OC)cc(OC)cc1OC` [(Z)-N-(2,4,6-Trimethoxyphenyl)-9-octadecenamide], the “Percent Change in Serum LDL Cholesterol From Control” value in the experiment with Serum LDL Cholesterol is given as -53%. Besides, the midpoint of inhibition in experiment [1], the IC50, lay at 60 nM.

Regarding `CCCCC/C=C\C/C=C\CCCCCCCC(=O)Nc1c(OC)cc(OC)cc1OC` [(Z,Z)-N-(2,4,6-Trimethoxyphenyl)-9,12-octadecadienamide], the IC50 in experiment [1] is 42 nM.

`CC/C=C\C/C=C\C/C=C\CCCCCCCC(=O)Nc1c(OC)cc(OC)cc1OC` [(Z,Z,Z)-N-(2,4,6-Trimethoxyphenyl)-9,12,15-octadecatrienamide] had an IC50 in experiment [1] of 86 nM.
